From patent US5447926A, “Quinolone carboxylic acid derivatives” (SS Pharmaceutical Co., Ltd., priority 1990, dated 1995)
≈ marks a conversion by molar mass, not a printed value.

Tests used:
[1] = test system: Salmonella typhi TD; type: cell-based; details: Salmonella enterica, 24 h
[2] = test system: Shigella flexneri 2b; type: cell-based; details: 24 h
[3] = test system: Klebsiella pneumonias IFO 13541; type: cell-based; details: IFO13541, 24 h, Gram-negative, Mueller Hinton Medium, 10^6 /ml, 37° C.
[4] = test system: Bacillus subtilis ATCC 6633; details: ATCC6633, 24 h
[5] = test system: Staphylococcus aureus FDA 209P; details: FDA209P, 24 h
[6] = test system: Staphylococcus aureus Terajima; details: 24 h
[7] = test system: Staphylococcus aureus Smith; details: 24 h
[8] = test system: Staphylococcus epidermidis ATCC 12228; details: ATCC12228, 24 h
[9] = test system: Sarcina lutea ATCC 9341; details: Micrococcus luteus, ATCC9341, 24 h
[10] = test system: Strepto occus faecalis IFO 12964; details: 24 h
[11] = test system: Micrococcus lysodeikticus IFO 3333; details: Micrococcus luteus, IFO3333, 24 h
[12] = test system: Escherichia coli 0-1; details: Escherichia coli, 01, 24 h
[13] = test system: Escherichia coli H-12; details: H12, 24 h
[14] = test system: Pseudomonas aeruginosa IFO 13736; details: IFO13736, 24 h
[15] = test system: Pseudomonas aeruginosa P2; details: P2, 24 h
[16] = test system: Pseudomonas aeruginosa IFO 12582; details: IFO12582, 24 h
[17] = test system: Klebsiella pneumonias ATCC 10031; details: ATCC10031, 24 h
[18] = test system: Proteus vulgaris OXK; details: 24 h
[19] = test system: Proteus rettgeri; details: Providencia rettgeri, 24 h
[20] = test system: Serratia marcescens NHL; details: 24 h
[21] = test system: M.R. Staphylococcus aureus 395; details: 24 h
[22] = test system: M.R. Staphylococcus aureus 415; details: 24 h
[23] = test system: M.R. Staphylococcus aureus 419; details: 24 h
[24] = test system: M.R. Staphylococcus aureus 420; details: 24 h
[25] = test system: M.R. Staphylococcus aureus 421; details: 24 h

Molecule O=C1CCN(c2c(F)cc3c(=O)c(C(=O)O)cn(C4CC4)c3c2Cl)CCN1 [Compound 2, 8-Chloro-1-cyclopropyl-6-fluoro-7-(2,3,4,5,6,7-hexahydro-1H-1,4-diazepin-5-one-1-yl)-4-oxoquinoline-3-carboxylic acid] has an MIC [1] of 0.098 µg/mL (≈ 0.249 µM), an MIC [2] of 0.003 µg/mL (≈ 0.00762 µM) and an MIC [3] of 0.098 µg/mL (≈ 0.249 µM). The MIC [4] was 0.024 µg/mL (≈ 0.0609 µM), the MIC [5] was 0.012 µg/mL (≈ 0.0305 µM) and the MIC [6] was 0.098 µg/mL (≈ 0.249 µM). It also gave an MIC [7] of 0.012 µg/mL (≈ 0.0305 µM), an MIC [8] of 0.049 µg/mL (≈ 0.124 µM) and an MIC [9] of 0.195 µg/mL (≈ 0.495 µM). The MIC [10] was 0.195 µg/mL (≈ 0.495 µM), the MIC [11] was 0.049 µg/mL (≈ 0.124 µM) and the MIC [12] was 0.195 µg/mL (≈ 0.495 µM). The MIC [13] was 0.39 µg/mL (≈ 0.99 µM), the MIC [14] was 6.25 µg/mL (≈ 15.9 µM) and the MIC [15] was 12.5 µg/mL (≈ 31.7 µM). The MIC [16] was 6.25 µg/mL (≈ 15.9 µM), the MIC [17] was 0.012 µg/mL (≈ 0.0305 µM) and the MIC [18] was 0.024 µg/mL (≈ 0.0609 µM). For the same molecule, the MIC [19] was 0.78 µg/mL (≈ 1.98 µM), the MIC [20] was 0.78 µg/mL (≈ 1.98 µM) and the MIC [21] was 0.049 µg/mL (≈ 0.124 µM). It also gave an MIC [22] of 0.024 µg/mL (≈ 0.0609 µM), an MIC [23] of 0.024 µg/mL (≈ 0.0609 µM) and an MIC [24] of 0.024 µg/mL (≈ 0.0609 µM). For the same molecule, the MIC [25] was 0.024 µg/mL (≈ 0.0609 µM).
N[C@@H]1CCCCN(c2c(F)cc3c(=O)c(C(=O)O)cn(C4CC4)c3c2Cl)C1 [Compound 15] was tested, and the MIC [1] was 0.049 µg/mL (≈ 0.124 µM), the MIC [2] was 0.006 µg/mL (≈ 0.0152 µM) and the MIC [3] was 0.049 µg/mL (≈ 0.124 µM). For the same molecule, the MIC [4] was 0.024 µg/mL (≈ 0.0609 µM), the MIC [5] was 0.012 µg/mL (≈ 0.0305 µM) and the MIC [6] was 0.195 µg/mL (≈ 0.495 µM). The MIC [7] was 0.024 µg/mL (≈ 0.0609 µM), the MIC [8] was 0.049 µg/mL (≈ 0.124 µM) and the MIC [9] was 0.098 µg/mL (≈ 0.249 µM). It also gave an MIC [10] of 0.195 µg/mL (≈ 0.495 µM), an MIC [11] of 0.195 µg/mL (≈ 0.495 µM) and an MIC [12] of 0.098 µg/mL (≈ 0.249 µM). The MIC [13] was 0.098 µg/mL (≈ 0.249 µM), the MIC [14] was 1.56 µg/mL (≈ 3.96 µM) and the MIC [15] was 1.56 µg/mL (≈ 3.96 µM). It also gave an MIC [16] of 0.78 µg/mL (≈ 1.98 µM), an MIC [17] of 0.012 µg/mL (≈ 0.0305 µM) and an MIC [18] of 0.049 µg/mL (≈ 0.124 µM). The MIC [19] was 0.195 µg/mL (≈ 0.495 µM), the MIC [20] was 0.195 µg/mL (≈ 0.495 µM) and the MIC [21] was 0.049 µg/mL (≈ 0.124 µM). The MIC [22] was 0.024 µg/mL (≈ 0.0609 µM), the MIC [23] was 0.024 µg/mL (≈ 0.0609 µM) and the MIC [24] was 0.049 µg/mL (≈ 0.124 µM). The MIC [25] was 0.049 µg/mL (≈ 0.124 µM).
Work on CC1COc2c(N3CCN(C)CC3)c(F)cc3c(=O)c(C(=O)O)cn1c23 (stereo not drawn) [Ofloxacin, reference compound] yielded an MIC [1] of 0.024 µg/mL (≈ 0.0664 µM), an MIC [2] of 0.012 µg/mL (≈ 0.0332 µM) and an MIC [3] of 0.024 µg/mL (≈ 0.0664 µM). It also gave an MIC [4] of 0.098 µg/mL (≈ 0.271 µM), an MIC [5] of 0.195 µg/mL (≈ 0.54 µM) and an MIC [6] of 0.78 µg/mL (≈ 2.16 µM). It also gave an MIC [7] of 0.39 µg/mL (≈ 1.08 µM), an MIC [8] of 0.78 µg/mL (≈ 2.16 µM) and an MIC [9] of 3.12 µg/mL (≈ 8.63 µM). For the same molecule, the MIC [10] was 1.56 µg/mL (≈ 4.32 µM), the MIC [11] was 1.56 µg/mL (≈ 4.32 µM) and the MIC [12] was 0.098 µg/mL (≈ 0.271 µM). The MIC [13] was 0.098 µg/mL (≈ 0.271 µM), the MIC [14] was 1.56 µg/mL (≈ 4.32 µM) and the MIC [15] was 0.78 µg/mL (≈ 2.16 µM). It also gave an MIC [16] of 3.12 µg/mL (≈ 8.63 µM), an MIC [17] of 0.024 µg/mL (≈ 0.0664 µM) and an MIC [18] of 0.049 µg/mL (≈ 0.136 µM). The MIC [19] was 0.098 µg/mL (≈ 0.271 µM), the MIC [20] was 0.049 µg/mL (≈ 0.136 µM) and the MIC [21] was 0.39 µg/mL (≈ 1.08 µM). For the same molecule, the MIC [22] was 0.39 µg/mL (≈ 1.08 µM), the MIC [23] was 0.39 µg/mL (≈ 1.08 µM) and the MIC [24] was 0.39 µg/mL (≈ 1.08 µM). The MIC [25] was 0.39 µg/mL (≈ 1.08 µM).
